Measurements from US7323433B2, “R-(-)-1-[2-(7-chlorobenzo[b]thiopen-3-yl-methoxy)-2-(2,4-dichlorophenyl)-ethyl]-1H-imidazole” (Ferrer Internacional, S.A., priority 2002, dated 2008).
In brackets after ≈: the same amount, converted by molar mass. Like-named read-outs stand apart in the source and are kept apart here.

Experiments:
Format in all cases: cell-based
[1] = tested on: Filamentous fungi; experiment: MIC by modified NCCLS M27-A microdilution, Filamentous fungi; settings: 11 strains, geometric mean, MIC = lowest concentration giving 50% inhibition of growth
Method: (§1) Minimal Inhibitory Concentrations (MICs) were determined by using a modification of the microdilution method M27-A recommended by the National Committee for Clinical Laboratory Standards in RPMI-1640 medium (Sigma) supplemented with glucose to a concentration of 2% and adjusted to pH 7.0 with 0.165 M morpholine propanesulfonic (MOPS) acid buffer. Serial twofold dilutions were made in modified RPMI-1640 medium from stock solutions. MICs were defined as the lowest drug concentrations resulting in 50% inhibition of growth compared to that of the growth control. […] The number of strains used in the experiments is given in parenthesis below the name of each microorganism.

[2] = tested on: Candida spp; experiment: MIC by modified NCCLS M27-A microdilution, Candida spp; settings: 42 strains, geometric mean, MIC = lowest concentration giving 50% inhibition of growth
Method: as §1

[3] = tested on: Malassezia spp; experiment: MIC by modified NCCLS M27-A microdilution, Malassezia spp; settings: 11 strains, geometric mean, MIC = lowest concentration giving 50% inhibition of growth
Method: as §1

[4] = tested on: Dermatophytes; experiment: MIC by modified NCCLS M27-A microdilution, Dermatophytes; settings: 17 strains, geometric mean, MIC = lowest concentration giving 50% inhibition of growth
Method: as §1

[5] = tested on: fungi and yeasts; experiment: Microbiological activity (MIC) overall, comparison of enantiomers and racemate
Method: as §1

[6] = RPMI-1640 2% glucose pH 7.0, read-out: MIC

| SMILES | MIC [1, 6] [µg/mL] | MIC [2, 6] [µg/mL] | MIC [3, 6] [µg/mL] | MIC [4, 6] [µg/mL] | MIC ([1]; RPMI-1640 2% glucose pH 7.0) [µg/mL] | MIC ([2]; RPMI-1640 2% glucose pH 7.0) [µg/mL] | microbiological activity in comparison with R-(−)sertaconazole ([5]; in words, from Table 1) | MIC ([3]; RPMI-1640 2% glucose pH 7.0) [µg/mL] | MIC ([4]; RPMI-1640 2% glucose pH 7.0) [µg/mL] | activity compared with the racemic mixture ([5]; against both fungi and yeasts, as shown in Table 1) |
| --- | --- | --- | --- | --- | --- | --- | --- | --- | --- | --- |
| Clc1ccc(C(Cn2ccnc2)OCc2csc3c(Cl)cccc23)c(Cl)c1 (racemic) [Racemate, 1-[2-(7-chlorobenzo[b]thiophen-3-yl-methoxy)-2-(2,4-dichlorophenyl)-ethyl]-1H-imidazole] | 3.11 (≈ 7.1 µM) | 0.256 (≈ 0.585 µM) | 1.37 (≈ 3.13 µM) | 0.08 (≈ 0.183 µM) | – | – | – | – | – | – |
| Clc1ccc([C@@H](Cn2ccnc2)OCc2csc3c(Cl)cccc23)c(Cl)c1.O=[N+]([O-])O (single isomer, unassigned) [S-(+)enantiomer] | – | – | – | – | 16 | 3.217 | much less active | 10.96 | 0.17 | – |
| Clc1ccc([C@H](Cn2ccnc2)OCc2csc3c(Cl)cccc23)c(Cl)c1.O=[N+]([O-])O [R-(−)enantiomer, (R)-(−)-1-[2-(7-chlorobenzo[b]thiophen-3-yl-methoxy)-2-(2,4-dichlorophenyl)-ethyl]-1H-imidazole mononitrate] | 1.76 | 0.125 | 0.64 | 0.04 | – | – | – | – | – | about 2 times |
